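Where inhibition never reached the appropriate level, the endpoint shown equals the highest concentration tested. Otherwise, values were interpolated linearly from a five-concentration, 48-hour dose response in 96-well plates. GI50: concentration for 50% inhibition of growth.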 Activity calls are given as the source filed them. No stated cut-off is given here; in the data, active = GI50 up to about 1.1 µM and inactive = higher.
Columns and labels:
Assay in all cases: DTP human tumour cell line panel, 48 h
[1] = test system: A549
[2] = test system: COLO 205
[3] = test system: UO-31
[4] = test system: 786-0
[5] = test system: HCT-15
[6] = test system: DMS-273
[7] = test system: RPMI-8226
[8] = test system: NCI-H23
[9] = test system: EKVX
[10] = test system: NCI-H522
[11] = test system: SK-OV-3
[12] = test system: UACC-257
[13] = test system: SK-MEL-28
[14] = test system: DMS-114
[15] = test system: OVCAR-5
[16] = test system: KM12
[17] = test system: K562
[18] = test system: M19-MEL
[19] = test system: HOP-62
[20] = test system: HOP-18
[21] = test system: CCRF-CEM
[22] = test system: OVCAR-3
[23] = test system: OVCAR-4
[24] = test system: UACC-62
[25] = test system: RXF 393
[26] = test system: HCT-116
[27] = test system: M14
[28] = test system: A498
[29] = test system: SF-268
[30] = test system: HCC 2998
[31] = test system: TK-10
[32] = test system: OVCAR-8
[33] = test system: U-251
[34] = test system: LXFL 529
[35] = test system: LOX IMVI
[36] = test system: XF498
[37] = test system: KM-20L2
[38] = test system: HT-29
[39] = test system: MOLT-4
[40] = test system: SN12C
[41] = test system: SW-620
[42] = test system: SF-539
[43] = test system: SR
[44] = test system: SK-MEL-2
[45] = test system: HOP-92
[46] = test system: SF-295
[47] = test system: IGROV-1
[48] = test system: Malme-3M
[49] = test system: SNB-19
[50] = test system: NCI-H460
[51] = test system: ACHN
[52] = test system: SNB-78
[53] = test system: HL-60
[54] = test system: DLD-1
[55] = test system: NCI-H226
[56] = test system: SK-MEL-5
[57] = test system: SNB-75
[58] = test system: CAKI-1

NC(=S)N1N=C2c3ccccc3CC[C@H]2[C@@H]1c1ccc(Cl)cc1
GI50 [1]: 30 µM (inactive) | GI50 [2]: 17.9 µM (inactive) | GI50 [3]: 20.8 µM (inactive) | GI50 [4]: 30.6 µM (inactive) | GI50 [5]: 33.3 µM | GI50 [6]: 24.7 µM (inactive) | GI50 [7]: 18.6 µM (inactive) | GI50 [8]: 24.4 µM (inactive) | GI50 [9]: 37.8 µM (inactive) | GI50 [10]: 9.18 µM (inactive) | GI50 [11]: 36.9 µM (inactive) | GI50 [12]: 25.2 µM (inactive) | GI50 [13]: 40.8 µM (inactive) | GI50 [14]: 23.9 µM (inactive) | GI50 [15]: 47.6 µM (inactive) | GI50 [16]: 29 µM (inactive) | GI50 [17]: 19.5 µM (inactive) | GI50 [18]: 30.6 µM (inactive) | GI50 [19]: 30.1 µM (inactive) | GI50 [20]: 18.6 µM (inactive) | GI50 [21]: 41.3 µM (inactive) | GI50 [22]: 28.2 µM (inactive) | GI50 [23]: 30.8 µM (inactive) | GI50 [24]: 27.9 µM (inactive) | GI50 [25]: 30 µM (inactive) | GI50 [26]: 15.5 µM (inactive) | GI50 [27]: 28.2 µM (inactive) | GI50 [28]: 35.5 µM (inactive) | GI50 [29]: 32.5 µM (inactive) | GI50 [30]: 36.7 µM (inactive) | GI50 [31]: 45.7 µM (inactive) | GI50 [32]: 31.6 µM (inactive) | GI50 [33]: 37.8 µM (inactive) | GI50 [34]: 21.2 µM (inactive) | GI50 [35]: 34.8 µM (inactive) | GI50 [36]: 26.4 µM (inactive) | GI50 [37]: 29.8 µM (inactive) | GI50 [38]: 24.9 µM (inactive) | GI50 [39]: 18.9 µM (inactive) | GI50 [40]: 30.6 µM (inactive) | GI50 [41]: 38.4 µM (inactive) | GI50 [42]: 41.7 µM (inactive) | GI50 [43]: 26.2 µM (inactive) | GI50 [44]: 22.3 µM (inactive) | GI50 [45]: 22.3 µM (inactive) | GI50 [46]: 26.7 µM (inactive) | GI50 [47]: 19.4 µM (inactive) | GI50 [48]: 19.4 µM (inactive) | GI50 [49]: 47.4 µM (inactive) | GI50 [50]: 27 µM (inactive) | GI50 [51]: 24.4 µM (inactive) | GI50 [52]: 87.3 µM (inactive) | GI50 [53]: 17.6 µM (inactive) | GI50 [54]: 31.7 µM (inactive) | GI50 [55]: 16.7 µM (inactive)

COc1cc2c(oc(=O)c3c4occc4cc(OC)c23)c2cccc(OCc3ccccc3)c12
GI50 [1]: > 100 µM (inactive) | GI50 [56]: > 100 µM (inactive) | GI50 [2]: > 100 µM (inactive) | GI50 [3]: > 100 µM (inactive) | GI50 [4]: 41.4 µM (inactive) | GI50 [5]: > 100 µM | GI50 [6]: 38.9 µM (inactive) | GI50 [7]: > 100 µM (inactive) | GI50 [8]: > 100 µM (inactive) | GI50 [57]: 40 µM (inactive) | GI50 [9]: > 100 µM (inactive) | GI50 [10]: > 100 µM (inactive) | GI50 [11]: > 100 µM (inactive) | GI50 [12]: > 100 µM (inactive) | GI50 [13]: 49.4 µM (inactive) | GI50 [14]: > 100 µM (inactive) | GI50 [15]: > 100 µM (inactive) | GI50 [16]: > 100 µM (inactive) | GI50 [17]: > 100 µM (inactive) | GI50 [18]: 61.5 µM (inactive) | GI50 [19]: > 100 µM (inactive) | GI50 [20]: > 100 µM (inactive) | GI50 [21]: > 100 µM (inactive) | GI50 [22]: > 100 µM (inactive) | GI50 [23]: 44.4 µM (inactive) | GI50 [24]: 86.1 µM (inactive) | GI50 [25]: 78.3 µM (inactive) | GI50 [26]: > 100 µM (inactive) | GI50 [58]: > 100 µM (inactive) | GI50 [27]: 80.2 µM (inactive) | GI50 [28]: 34.4 µM (inactive) | GI50 [29]: > 100 µM (inactive) | GI50 [30]: > 100 µM (inactive) | GI50 [31]: > 100 µM (inactive) | GI50 [32]: > 100 µM (inactive) | GI50 [33]: > 100 µM (inactive) | GI50 [34]: 64.7 µM (inactive) | GI50 [35]: > 100 µM (inactive) | GI50 [36]: 42 µM (inactive) | GI50 [37]: > 100 µM (inactive) | GI50 [38]: > 100 µM (inactive) | GI50 [39]: > 100 µM (inactive) | GI50 [40]: > 100 µM (inactive) | GI50 [41]: > 100 µM (inactive) | GI50 [42]: > 100 µM (inactive) | GI50 [43]: > 100 µM (inactive) | GI50 [44]: > 100 µM (inactive) | GI50 [45]: > 100 µM (inactive) | GI50 [46]: 88.9 µM (inactive) | GI50 [47]: > 100 µM (inactive) | GI50 [48]: 35.6 µM (inactive) | GI50 [49]: > 100 µM (inactive) | GI50 [50]: 44.9 µM (inactive) | GI50 [51]: > 100 µM (inactive) | GI50 [52]: 37.8 µM (inactive) | GI50 [53]: 65.8 µM (inactive) | GI50 [54]: > 100 µM (inactive) | GI50 [55]: > 100 µM (inactive)

COC(=O)CCC(NC(=S)N/N=C(\C)c1ccc[nH]1)C(=O)OC (stereo not drawn)
GI50 [1]: > 100 µM (inactive) | GI50 [56]: > 100 µM (inactive) | GI50 [2]: > 100 µM (inactive) | GI50 [3]: > 100 µM (inactive) | GI50 [4]: > 100 µM (inactive) | GI50 [5]: > 100 µM | GI50 [6]: > 100 µM (inactive) | GI50 [8]: > 100 µM (inactive) | GI50 [57]: > 100 µM (inactive) | GI50 [9]: > 100 µM (inactive) | GI50 [10]: > 100 µM (inactive) | GI50 [11]: > 100 µM (inactive) | GI50 [12]: > 100 µM (inactive) | GI50 [13]: > 100 µM (inactive) | GI50 [14]: > 100 µM (inactive) | GI50 [15]: > 100 µM (inactive) | GI50 [16]: > 100 µM (inactive) | GI50 [17]: > 100 µM (inactive) | GI50 [18]: > 100 µM (inactive) | GI50 [19]: > 100 µM (inactive) | GI50 [20]: > 100 µM (inactive) | GI50 [21]: > 100 µM (inactive) | GI50 [22]: > 100 µM (inactive) | GI50 [23]: > 100 µM (inactive) | GI50 [24]: > 100 µM (inactive) | GI50 [25]: > 100 µM (inactive) | GI50 [26]: > 100 µM (inactive) | GI50 [27]: > 100 µM (inactive) | GI50 [28]: > 100 µM (inactive) | GI50 [29]: > 100 µM (inactive) | GI50 [30]: > 100 µM (inactive) | GI50 [31]: > 100 µM (inactive) | GI50 [32]: > 100 µM (inactive) | GI50 [33]: > 100 µM (inactive) | GI50 [34]: > 100 µM (inactive) | GI50 [35]: > 100 µM (inactive) | GI50 [36]: > 100 µM (inactive) | GI50 [37]: > 100 µM (inactive) | GI50 [38]: > 100 µM (inactive) | GI50 [39]: > 100 µM (inactive) | GI50 [40]: > 100 µM (inactive) | GI50 [41]: > 100 µM (inactive) | GI50 [42]: > 100 µM (inactive) | GI50 [44]: > 100 µM (inactive) | GI50 [45]: > 100 µM (inactive) | GI50 [46]: > 100 µM (inactive) | GI50 [47]: > 100 µM (inactive) | GI50 [48]: > 100 µM (inactive) | GI50 [49]: > 100 µM (inactive) | GI50 [50]: > 100 µM (inactive) | GI50 [51]: > 100 µM (inactive) | GI50 [52]: > 100 µM (inactive) | GI50 [53]: > 100 µM (inactive) | GI50 [54]: > 100 µM (inactive) | GI50 [55]: > 100 µM (inactive)

— ChEMBL document CHEMBL1201862, “PubChem BioAssay data set” (2004)
